Four compounds from patent US12240838B2, “Inhibiting agents for Bruton's tyrosine kinase” (BIOGEN MA INC., priority 2019, dated 2025) can be followed below.

The target of experiment [1] is T1, BTK (Homo sapiens (Human), UniProt Q06187). The experiment is described as follows: In Vitro BTK Kinase Assay: BTK-POLYGAT-LS ASSAY. Format: biochemical. The note with it: ATP 10 μM, polyGAT 100 nM, BTK 0.25 nM, 30 minutes. An outline of the steps:
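BTK (0.25 nM final) with 10 μM ATP and 100 nM polyGAT in pH 7.5 Tris buffer with MgCl2, DTT, Triton X-100 and casein; compound titrated 4-fold. Reaction 30 min, stopped with EDTA. Phosphorylation detected by TR-FRET with Tb-PY20 antibody after 45 min at room temperature; IC50 reported.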

Experiment [2] concerns the target T1, BTK. Kind of experiment: In Vitro PD Assay in Human Whole Blood (pBTK assay). Format: cell-based. The note with it: 37° C. for 30 min, 50% inhibition of ECL signal. In short, it runs like this: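 Heparinized human whole blood was spiked with serially diluted compound (0.1% DMSO final) and held 30 min at 37 °C. Samples were then lysed with protease and phosphatase inhibitors. Total BTK was captured and phosphotyrosine detected, with DMSO-only lysates ± phosphatase inhibitors serving as high and low controls.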

In general, IC50 refers to the concentration that gives 50% inhibition.

T1 sequence (Q06187 whole entry): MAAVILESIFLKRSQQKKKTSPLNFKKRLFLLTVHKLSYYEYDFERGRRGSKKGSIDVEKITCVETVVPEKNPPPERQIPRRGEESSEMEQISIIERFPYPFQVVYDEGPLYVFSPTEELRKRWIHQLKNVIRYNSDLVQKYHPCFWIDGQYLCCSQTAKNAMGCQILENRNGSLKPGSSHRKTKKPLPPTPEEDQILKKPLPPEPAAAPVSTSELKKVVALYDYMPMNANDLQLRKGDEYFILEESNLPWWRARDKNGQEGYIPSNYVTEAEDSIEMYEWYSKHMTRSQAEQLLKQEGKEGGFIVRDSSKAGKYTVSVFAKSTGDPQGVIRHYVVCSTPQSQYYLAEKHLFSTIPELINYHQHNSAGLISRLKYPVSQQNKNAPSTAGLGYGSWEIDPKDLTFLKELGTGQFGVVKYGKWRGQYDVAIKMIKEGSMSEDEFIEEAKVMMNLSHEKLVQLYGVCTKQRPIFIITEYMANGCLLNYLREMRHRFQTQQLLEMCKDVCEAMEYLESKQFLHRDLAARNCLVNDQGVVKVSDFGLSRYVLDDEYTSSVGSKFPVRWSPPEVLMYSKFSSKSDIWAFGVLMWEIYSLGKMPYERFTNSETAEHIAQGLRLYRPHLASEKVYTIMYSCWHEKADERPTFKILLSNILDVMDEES

`Cc1cc(-c2cc(NC(=O)C3CC3)ncc2F)c(F)cc1CNC(=O)c1noc(C(C)(C)C)n1` [Compound 103, 5-(tert-butyl)-N-(4-(2-(cyclopropanecarboxamido)5-fluoropyridin-4-yl)-5-fluoro-2-methylbenzyl)-1,2,4-oxadiazole-3-carboxamide]: the IC50 against BTK [1] was no more than 0.001 µM; at BTK [2], 0.1 to 0.5 µM.

In the case of `CC(C)(C)c1nc(C(=O)NCc2cc(F)c(-c3ccnc(NC(=O)C4CC4)c3)cc2Cl)no1` [Compound 104, 5-(tert-butyl)-N-(2-chloro-4-(2-(cyclopropanecarboxamido)pyridin-4-yl)-5-fluorobenzyl)-1,2,4-oxadiazole-3-carboxamide], the IC50 against BTK [1] was no more than 0.001 µM; against BTK [2] it was 0.1 to 0.5 µM.

For the compound `Cc1cc(-c2cc(NC(=O)C3CC3)ncc2F)ccc1CNC(=O)c1noc(C(C)(C)C)n1` [Compound 106, 5-(tert-butyl)-N-(4-(2-(cyclopropanecarboxamido)5-fluoropyridin-4-yl)-2-methylbenzyl)-1,2,4-oxadiazole-3-carboxamide], the IC50 against BTK [1] was no more than 0.001 µM; against BTK [2], 0.5 to 10 µM.

Consider `CC(C)(C)c1nc(C(=O)NCc2ccc(-c3ccnc(NC(=O)C4CC4)c3)cc2OC(F)(F)F)no1` [Compound 107, 5-(tert-butyl)-N-(4-(2-(cyclopropanecarboxamido)pyridin-4-yl)-2-(trifluoromethoxy)benzyl)-1,2,4-oxadiazole-3-carboxamide], for which the half-maximal inhibitory concentration (IC50) against BTK [1] was no more than 0.001 µM; at BTK [2], no more than 0.1 µM.
